Assay results as given in ChEMBL document CHEMBL5696440, “Inhibition of BET recruitment to chromatin as an effective treatment for MLL-fusion leukaemia” (Nature, 2011).

How the values were obtained:
[1] = Cmax in NOD:SCID mouse at 30 mg/kg, ip administered for 24 hrs by LC-MS/MS analysis; assay type: ADME, organism-based; settings: in vivo
[2] = AUC (0 to infinity) in NOD:SCID mouse at 30 mg/kg, ip administered for 24 hrs by LC-MS/MS analysis; assay type: ADME, organism-based; settings: in vivo
[3] = Half life in NOD:SCID mouse at 30 mg/kg, ip administered for 24 hrs by LC-MS/MS analysis; assay type: ADME, organism-based; settings: in vivo
[4] = target: Prostaglandin G/H synthase 2 (Homo sapiens, UniProt P35354); assay: Inhibition of human COX-2 by FLINT assay
Sequence of Prostaglandin G/H synthase 2 (P35354 whole entry): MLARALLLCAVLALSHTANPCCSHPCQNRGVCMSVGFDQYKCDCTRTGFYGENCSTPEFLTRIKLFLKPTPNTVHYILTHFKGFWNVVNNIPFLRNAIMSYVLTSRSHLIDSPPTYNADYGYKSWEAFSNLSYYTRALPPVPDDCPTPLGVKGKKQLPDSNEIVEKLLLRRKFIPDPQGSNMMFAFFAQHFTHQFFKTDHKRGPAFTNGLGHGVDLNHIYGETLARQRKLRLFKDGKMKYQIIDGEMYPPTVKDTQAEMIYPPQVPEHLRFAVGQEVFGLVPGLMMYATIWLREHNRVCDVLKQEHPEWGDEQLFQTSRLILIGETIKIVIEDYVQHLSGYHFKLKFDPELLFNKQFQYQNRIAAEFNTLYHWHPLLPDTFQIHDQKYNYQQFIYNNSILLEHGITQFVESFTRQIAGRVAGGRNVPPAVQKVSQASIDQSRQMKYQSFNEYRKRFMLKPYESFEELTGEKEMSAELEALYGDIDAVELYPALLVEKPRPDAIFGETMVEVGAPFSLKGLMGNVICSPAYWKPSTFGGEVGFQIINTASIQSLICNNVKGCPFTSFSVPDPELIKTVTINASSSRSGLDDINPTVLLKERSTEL

[5] = target: 3',5'-cyclic-AMP phosphodiesterase 4B (Homo sapiens, UniProt Q07343); assay: Inhibition of human PDE4B by luminescence assay
Sequence of 3',5'-cyclic-AMP phosphodiesterase 4B (Q07343 whole entry): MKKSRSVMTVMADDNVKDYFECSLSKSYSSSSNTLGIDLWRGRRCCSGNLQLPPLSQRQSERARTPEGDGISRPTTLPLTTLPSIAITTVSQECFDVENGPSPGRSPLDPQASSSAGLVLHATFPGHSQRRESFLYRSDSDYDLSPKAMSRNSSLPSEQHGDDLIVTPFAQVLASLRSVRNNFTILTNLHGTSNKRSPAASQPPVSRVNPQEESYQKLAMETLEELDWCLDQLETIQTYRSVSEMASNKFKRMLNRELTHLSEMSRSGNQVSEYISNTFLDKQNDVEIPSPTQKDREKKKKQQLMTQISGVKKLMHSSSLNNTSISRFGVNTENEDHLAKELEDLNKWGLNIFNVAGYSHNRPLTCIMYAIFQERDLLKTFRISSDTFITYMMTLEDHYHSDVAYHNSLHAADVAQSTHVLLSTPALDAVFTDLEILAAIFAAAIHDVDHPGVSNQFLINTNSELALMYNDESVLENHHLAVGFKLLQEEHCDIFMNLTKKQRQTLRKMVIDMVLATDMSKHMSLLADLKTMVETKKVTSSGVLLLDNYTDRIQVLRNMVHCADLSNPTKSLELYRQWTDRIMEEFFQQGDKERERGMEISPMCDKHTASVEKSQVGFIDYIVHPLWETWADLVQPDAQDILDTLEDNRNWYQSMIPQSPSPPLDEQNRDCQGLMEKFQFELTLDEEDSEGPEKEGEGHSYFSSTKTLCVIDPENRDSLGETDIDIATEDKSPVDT

[6] = target: 5-hydroxytryptamine receptor 1B (Homo sapiens, UniProt P28222); assay: Inhibition of human 5-HT1B in presence of GTPgS
[7] = target: 5-hydroxytryptamine receptor 2A (Homo sapiens, UniProt P28223); assay: Inhibition of human 5-HT2A by intracellular Ca2+ luminescence assay; assay type: functional, cell-based
[8] = target: 5-hydroxytryptamine receptor 2C (Homo sapiens, UniProt P28335); assay: Inhibition of human 5-HT2C by intracellular Ca2+ luminescence assay; assay type: functional, cell-based
[9] = target: Alpha-1B adrenergic receptor (Homo sapiens, UniProt P35368); assay: Inhibition of human adrenergic alpha 1B by intracellular Ca2+ fluorescence assay; assay type: functional, cell-based
Sequence of Alpha-1B adrenergic receptor (P35368 whole entry): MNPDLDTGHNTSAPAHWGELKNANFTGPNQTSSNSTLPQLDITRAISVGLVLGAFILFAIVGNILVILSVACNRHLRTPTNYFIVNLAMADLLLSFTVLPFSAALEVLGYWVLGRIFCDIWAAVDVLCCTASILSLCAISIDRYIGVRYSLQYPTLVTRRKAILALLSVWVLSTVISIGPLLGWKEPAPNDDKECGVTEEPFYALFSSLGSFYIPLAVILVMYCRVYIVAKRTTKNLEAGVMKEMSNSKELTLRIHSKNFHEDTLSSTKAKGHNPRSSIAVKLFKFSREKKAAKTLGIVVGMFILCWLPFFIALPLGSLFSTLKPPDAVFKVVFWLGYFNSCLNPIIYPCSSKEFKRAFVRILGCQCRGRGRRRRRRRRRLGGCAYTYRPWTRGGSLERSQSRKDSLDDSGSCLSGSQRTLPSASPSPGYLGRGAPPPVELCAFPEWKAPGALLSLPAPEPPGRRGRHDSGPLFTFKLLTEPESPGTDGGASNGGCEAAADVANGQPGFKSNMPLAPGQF

[10] = target: Beta-2 adrenergic receptor (Homo sapiens, UniProt P07550); assay: Inhibition of human beta2 adrenoceptor […] incubated for 1 hr by TR-FRET assay
[11] = target: D(2) dopamine receptor (Homo sapiens, UniProt P14416); assay: Inhibition of human dopamine 2 receptor in presence of GTPgS
[12] = target: D(1A) dopamine receptor (Homo sapiens, UniProt P21728); assay: Inhibition of His6-tagged human dopamine 1 receptor […] incubated for 1 hr by TR-FRET assay
[13] = target: Histamine H1 receptor (Homo sapiens, UniProt P35367); assay: Inhibition of human HRH1 by intracellular Ca2+ luminescence assay; assay type: functional, cell-based
[14] = target: Serotonin 3 (5-HT3) receptor; assay: Inhibition of human 5-HT3 by intracellular Ca2+ fluorescence assay; assay type: cell-based
[15] = target: Muscarinic acetylcholine receptor M1 (Homo sapiens, UniProt P11229); assay: Inhibition of human M1 by intracellular Ca2+ fluorescence assay; assay type: functional, cell-based
[16] = target: Muscarinic acetylcholine receptor M2 (Homo sapiens, UniProt P08172); assay: Inhibition of human M2 by intracellular Ca2+ fluorescence assay; assay type: functional, cell-based
[17] = target: Substance-P receptor (Homo sapiens, UniProt P25103); assay: Inhibition of human NK1 by intracellular Ca2+ luminescence assay; assay type: functional, cell-based
[18] = target: Kappa-type opioid receptor (Homo sapiens, UniProt P41145); assay: Inhibition of human OPRK1 in presence of GTPgS
Sequence of Kappa-type opioid receptor (P41145 whole entry): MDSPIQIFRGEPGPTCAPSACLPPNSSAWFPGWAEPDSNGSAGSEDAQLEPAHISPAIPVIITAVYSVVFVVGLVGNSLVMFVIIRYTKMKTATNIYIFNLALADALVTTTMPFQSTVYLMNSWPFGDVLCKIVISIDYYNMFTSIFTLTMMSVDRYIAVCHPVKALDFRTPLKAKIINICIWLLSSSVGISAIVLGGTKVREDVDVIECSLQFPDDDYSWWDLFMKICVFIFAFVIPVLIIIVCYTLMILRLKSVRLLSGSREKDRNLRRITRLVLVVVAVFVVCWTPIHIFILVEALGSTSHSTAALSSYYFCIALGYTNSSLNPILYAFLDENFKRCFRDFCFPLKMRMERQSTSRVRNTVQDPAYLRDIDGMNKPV

[19] = target: Mu-type opioid receptor (Homo sapiens, UniProt P35372); assay: Inhibition of human OPRM1 in presence of GTPgS
[20] = target: Vasopressin V1a receptor (Homo sapiens, UniProt P37288); assay: Inhibition of human V1a by intracellular Ca2+ fluorescence assay; assay type: functional, cell-based
[21] = target: Acetylcholine receptor subunit alpha (Homo sapiens, UniProt P02708); assay: Inhibition of human alpha 1 nAChR by intracellular Ca2+ fluorescence assay; assay type: cell-based
[22] = target: Voltage-dependent L-type calcium channel subunit alpha-1C (Homo sapiens, UniProt Q13936); assay: Inhibition of human CaV1.2 by intracellular Ca2+ fluorescence assay; assay type: cell-based
Sequence of Voltage-dependent L-type calcium channel subunit alpha-1C (Q13936 whole entry): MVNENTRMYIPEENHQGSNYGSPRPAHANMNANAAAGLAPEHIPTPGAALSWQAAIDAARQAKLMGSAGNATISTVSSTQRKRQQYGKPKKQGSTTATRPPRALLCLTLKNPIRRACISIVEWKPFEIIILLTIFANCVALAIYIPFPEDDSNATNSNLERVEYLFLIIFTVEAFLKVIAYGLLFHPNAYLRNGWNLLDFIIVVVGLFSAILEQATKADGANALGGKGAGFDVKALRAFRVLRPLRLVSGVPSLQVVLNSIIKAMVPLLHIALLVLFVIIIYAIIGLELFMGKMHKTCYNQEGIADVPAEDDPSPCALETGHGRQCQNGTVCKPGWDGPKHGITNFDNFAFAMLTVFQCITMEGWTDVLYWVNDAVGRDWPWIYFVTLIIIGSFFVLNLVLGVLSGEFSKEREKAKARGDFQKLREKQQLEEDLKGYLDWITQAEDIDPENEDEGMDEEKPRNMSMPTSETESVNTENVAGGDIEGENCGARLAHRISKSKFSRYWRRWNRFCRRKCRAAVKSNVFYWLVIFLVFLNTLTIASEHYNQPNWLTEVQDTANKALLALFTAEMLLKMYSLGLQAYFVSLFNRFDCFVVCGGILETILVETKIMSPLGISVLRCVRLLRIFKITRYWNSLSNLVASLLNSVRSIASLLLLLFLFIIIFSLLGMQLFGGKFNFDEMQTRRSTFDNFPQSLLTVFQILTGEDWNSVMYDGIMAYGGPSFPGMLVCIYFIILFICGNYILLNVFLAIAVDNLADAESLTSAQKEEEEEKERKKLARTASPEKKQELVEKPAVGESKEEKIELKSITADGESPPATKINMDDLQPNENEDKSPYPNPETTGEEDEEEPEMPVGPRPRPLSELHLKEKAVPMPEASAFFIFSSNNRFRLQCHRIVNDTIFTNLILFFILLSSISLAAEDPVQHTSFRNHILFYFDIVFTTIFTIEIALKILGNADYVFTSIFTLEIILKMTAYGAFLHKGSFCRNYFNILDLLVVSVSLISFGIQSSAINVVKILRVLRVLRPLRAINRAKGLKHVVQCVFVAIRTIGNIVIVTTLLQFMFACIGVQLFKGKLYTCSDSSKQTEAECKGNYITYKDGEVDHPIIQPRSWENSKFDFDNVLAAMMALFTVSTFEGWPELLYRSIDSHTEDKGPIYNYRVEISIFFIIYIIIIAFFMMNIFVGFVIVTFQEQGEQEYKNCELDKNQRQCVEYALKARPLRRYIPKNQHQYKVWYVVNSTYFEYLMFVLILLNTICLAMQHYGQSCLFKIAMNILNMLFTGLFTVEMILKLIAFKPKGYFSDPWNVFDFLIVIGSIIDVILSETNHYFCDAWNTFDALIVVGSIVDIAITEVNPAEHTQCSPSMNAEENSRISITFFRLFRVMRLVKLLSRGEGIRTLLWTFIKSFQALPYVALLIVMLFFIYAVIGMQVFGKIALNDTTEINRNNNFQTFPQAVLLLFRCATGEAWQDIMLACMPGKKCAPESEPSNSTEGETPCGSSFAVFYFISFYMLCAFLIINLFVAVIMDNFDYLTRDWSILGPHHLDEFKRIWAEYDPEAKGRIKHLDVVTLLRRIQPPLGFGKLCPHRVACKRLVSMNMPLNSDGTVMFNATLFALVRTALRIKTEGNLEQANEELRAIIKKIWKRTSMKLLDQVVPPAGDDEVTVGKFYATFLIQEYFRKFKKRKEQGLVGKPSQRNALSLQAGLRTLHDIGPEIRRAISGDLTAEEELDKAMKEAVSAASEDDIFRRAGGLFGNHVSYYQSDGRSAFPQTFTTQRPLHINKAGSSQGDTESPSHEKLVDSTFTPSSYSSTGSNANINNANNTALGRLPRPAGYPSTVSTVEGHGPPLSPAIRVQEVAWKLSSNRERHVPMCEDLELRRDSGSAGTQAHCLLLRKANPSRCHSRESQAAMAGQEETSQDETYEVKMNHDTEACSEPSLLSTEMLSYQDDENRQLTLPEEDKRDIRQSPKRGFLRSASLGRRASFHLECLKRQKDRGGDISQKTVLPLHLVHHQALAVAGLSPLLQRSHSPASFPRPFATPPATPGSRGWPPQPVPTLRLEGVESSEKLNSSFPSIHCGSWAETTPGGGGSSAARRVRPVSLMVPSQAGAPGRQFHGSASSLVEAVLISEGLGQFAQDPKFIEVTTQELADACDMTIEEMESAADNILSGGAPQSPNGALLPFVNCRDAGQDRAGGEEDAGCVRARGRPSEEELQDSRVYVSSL

[23] = target: Voltage-gated potassium channel, IKs; KCNQ1(Kv7.1)/KCNE1(MinK) (Homo sapiens, UniProt P15382+P51787); assay: Inhibition of human KCNQ1/KCNE1 by blocker ionworks assay; assay type: protein-complex assay
[24] = target: Potassium voltage-gated channel subfamily A member 5 (Homo sapiens, UniProt P22460); assay: Inhibition of human Kv1.5 by blocker ionworks assay
[25] = target: Sodium channel protein type 5 subunit alpha (Homo sapiens, UniProt Q14524); assay: Inhibition of human NaV1.5 by blocker ionworks assay
[26] = target: Aurora kinase B (Homo sapiens, UniProt Q96GD4); assay: Inhibition of His6-tagged human Aurora B kinase at pH 7.4 incubated for 60 mins by Alexa Fluor 488 staining based fluorescence anisotropy analysis
[27] = target: Glycogen synthase kinase-3 beta (Homo sapiens, UniProt P49841); assay: Inhibition of His6-tagged human GSK3beta at pH 7.4 incubated for 60 mins by Alexa Fluor 488 staining based fluorescence anisotropy analysis
[28] = target: Tyrosine-protein kinase Lck (Homo sapiens, UniProt P06239); assay: Inhibition of His6-tagged human LCK at pH 7.4 incubated for 60 mins by Alexa Fluor 488 staining based fluorescence anisotropy analysis
Sequence of Tyrosine-protein kinase Lck (P06239 whole entry, canonical isoform): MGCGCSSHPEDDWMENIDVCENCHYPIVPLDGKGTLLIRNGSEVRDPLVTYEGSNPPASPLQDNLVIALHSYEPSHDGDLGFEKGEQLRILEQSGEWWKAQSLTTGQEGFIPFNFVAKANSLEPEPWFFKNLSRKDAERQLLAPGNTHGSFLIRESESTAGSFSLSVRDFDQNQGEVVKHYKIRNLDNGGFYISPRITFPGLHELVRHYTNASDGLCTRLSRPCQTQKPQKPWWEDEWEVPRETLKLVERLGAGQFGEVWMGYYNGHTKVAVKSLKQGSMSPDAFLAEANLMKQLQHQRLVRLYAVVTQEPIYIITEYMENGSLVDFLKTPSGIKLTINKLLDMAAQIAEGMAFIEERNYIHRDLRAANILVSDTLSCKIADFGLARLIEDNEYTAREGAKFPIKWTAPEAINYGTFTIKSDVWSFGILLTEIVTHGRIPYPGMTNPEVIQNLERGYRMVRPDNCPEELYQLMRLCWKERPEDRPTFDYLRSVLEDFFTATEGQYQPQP

[29] = target: Phosphatidylinositol 4,5-bisphosphate 3-kinase catalytic subunit gamma isoform (Homo sapiens, UniProt P48736); assay: Inhibition of His6-tagged human PI3K-gamma […] incubated for 1 hr by TR-FRET assay
[30] = target: Sodium-dependent dopamine transporter (Homo sapiens, UniProt Q01959); assay: Inhibition of human DAT by scintillation proximity assay
[31] = target: Solute carrier organic anion transporter family member 1B1 (Homo sapiens, UniProt Q9Y6L6); assay: Inhibition of human OATP1B1 by FLINT imaging analysis
[32] = Cmax in NOD:SCID mouse at 30 mg/kg, ip administered for 36 hrs by LC-MS/MS analysis; assay type: ADME, organism-based; settings: in vivo
[33] = AUC (0 to infinity) in NOD:SCID mouse at 30 mg/kg, ip administered for 36 hrs by LC-MS/MS analysis; assay type: ADME, organism-based; settings: in vivo
[34] = tested on: MV4-11; assay: Antiproliferative activity against human MV4-11 cells assessed as inhibition of cell growth incubated for 72 hrs by CellTiter-Glo assay; assay type: functional, cell-based
[35] = target: Serine/threonine-protein kinase Chk1 (Homo sapiens, UniProt O14757); assay: Inhibition of CHEK1 (unknown origin) incubated for 1 hr by colloidal coomassie staining based LC-MS/MS analysis
[36] = target: Cyclin-dependent kinase 2 (Homo sapiens, UniProt P24941); assay: Inhibition of CDK2 (unknown origin) incubated for 1 hr by colloidal coomassie staining based LC-MS/MS analysis
[37] = target: Nucleoside diphosphate kinase A/B (Homo sapiens, UniProt P15531+P22392); assay: Inhibition of NME1/NME2 (unknown origin) incubated for 1 hr by colloidal coomassie staining based LC-MS/MS analysis; assay type: protein assay
[38] = in vivo; settings: NOD:SCID, mouse, ip, 30 mg/kg
[39] = tested on: NOMO-1; assay: Antiproliferative activity against human NOMO-1 cells harboring MLL-AF9 assessed as inhibition of cell growth incubated for […] by CellTiter-Aqueous One assay; assay type: functional, cell-based; settings: NOMO-1, 4 h
[40] = tested on: K562; assay: cells; settings: Homo sapiens, K562, 4 h

SMILES: Cc1sc2c(c1C)C(c1ccc(Cl)cc1)=N[C@@H](CC(=O)OC(C)(C)C)c1nnc(C)n1-2
- Cmax [1]: 0.84 µM
- AUC [2]: 2 µM·h
- half-life [3]: 2.3 h

SMILES: CCNC(=O)C[C@@H]1N=C(c2ccc(Cl)cc2)c2cc(OC)ccc2-n2c(C)nnc21 [MOLIBRESIB]
- IC50 [4]: > 100 µM
- IC50 [5]: > 25 µM
- IC50 [6]: > 100 µM
- IC50 [7]: > 40 µM
- IC50 [8]: > 40 µM
- IC50 [9]: > 40 µM
- IC50 [10]: > 31.6 µM
- IC50 [11]: > 100 µM
- IC50 [12]: > 31.6 µM
- IC50 [13]: > 40 µM
- IC50 [14]: > 50 µM
- IC50 [15]: > 15.1 µM
- IC50 [16]: > 15.8 µM
- IC50 [17]: > 40 µM
- IC50 [18]: > 100 µM
- IC50 [19]: > 100 µM
- IC50 [20]: > 50 µM
- IC50 [21]: 15.8 µM
- IC50 [22]: > 15.8 µM
- IC50 [23]: > 25 µM
- IC50 [24]: > 50 µM
- IC50 [25]: > 100 µM
- IC50 [26]: > 25 µM
- IC50 [27]: > 25 µM
- IC50 [28]: > 25 µM
- IC50 [29]: > 25 µM
- IC50 [30]: 79 µM
- IC50 [31]: 12.6 µM
- Cmax [32]: 21.9 µM
- AUC [33]: 40.3 µM·h
- IC50 ([34]; Homo sapiens, MV4-11, 72 h): 0.102 µM
- IC100 ([34]; time 72 hrs): 723 nM
- IC50 [35]: > 10 µM
- IC50 [36]: ≥ 10 µM
- IC50 [37]: > 10 µM
- half-life at 36 h [38]: 1.6 h

SMILES: O=C(Nc1c[nH]nc1-c1nc2ccc(CN3CCOCC3)cc2[nH]1)NC1CC1 [AT-9283]
- IC50 [39]: > 10 µM
- IC50 [40]: 0.26 µM
